According to EP3095872A1, “A METHOD OF PRODUCING ALPHA AMINO ACIDS” (Evonik Degussa GmbH, priority 2015, dated 2016):
Read-outs that look alike come from different tables or passages of the source. Marks after values point to notes of the source that are not given here.

Columns and labels:
Assay type in all cases: biochemical
P450Cla [1] = assay: preparative scale conversion of decanoic acid with P450Cla; conditions: 20 mM decanoic acid; 4 µM P450Cla; 32 mM H2O2 in total; 24 h
Protocol: Synthesis of 2-hydroxydecanoic acid was done in 10 ml Tris-HCl (pH 7.5; 0.1 M) employing 4µM P450Cla, 20 mM decanoic acid (38.8 mg of the sodium salt) and 2.5 % EtOH (RT, 170 rpm shaking). Hydrogen peroxide (1.6 mM) was added every 30 min (20 times; in total 32 mM) to the reaction mixture. After 24 h reaction time, 1 ml 5 N HCl was added to stop the reaction. Product extraction was repeated five times using 5 ml EtOAc prior to purification by silica chromatography column using EtOAc/petroleum ether/acetic acid as mobile phase (80:20:1.2). Fractions containing the desired product were combined and concentrated by evaporation under reduced pressure. With the present set up, 16 mg of 2-hydroxydecanoic acid (46 % isolated yield, TTNP450 ∼ 3040) was isolated which was confirmed by GC-MS, 1 H- and 13C-NMR (Figure 1).

P450Cla [2] = assay: alpha-hydroxylation of selected fatty acids, catalytic and kinetic characterization of P450Cla; conditions: for Product: 10 mM fatty acid, 0.5 µM P450Cla (C10), 1 µM (C8, C6), Tris-HCl pH 7.5, RT, triplicate; for specific activity U mg^-1: P450Cla 48 kDa, values only relevant at initial rate; for Coupling*: mol product per mol H2O2
Protocol: Hydroxylation of selected fatty acids was carried out using a fresh preparation of purified P450Cla. P450Cla was characterised for key catalytic parameters specific activities were determined for three selected substrates as shown in Table 1. Table 1: Catalytic and kinetic characterization of P450Cla for conversion of 10 mM of selected fatty acids. All reactions were performed in triplicate.
Conditions: 0.5 µM P450Cla used in reactions with C10; 1 µM P450Cla used in reactions with C8 and C6; All reactions were performed in Tris-HCl (pH 7.5, 0.1 M) at RT and 170 rpm shaking in closed glass vials; *molProduct^-1 molH2O2^-1; ^§molecular weight of P450Cla is 48 kDa, values only relevant at initial rate.

P450Cla [3] = assay: conversion of fatty acid substrate with P450Cla, oxidant O2 + NADPH; conditions: 10 mM substrate, without CamAB
Protocol: (§1) P450BSß was expressed and purified as described in Matsunaga et al. 2001. P450Cla was ordered as synthetic gene and cloned into the pET28a expression vector. Efficient expression of P450Cla was obtained by applying the expression protocol (TBmedia, 20 h, 30 °C) as described in Nazor et al. (2008) under heading 'shake flask expression of P450 BM3'. Purification was performed according to the published protocol (Girhard M., et al, 2007) with minor alterations as (unreported) precipitation of P450Cla during dialysis occured. The dialysis buffer was supplemented with 300 mM NaCl to prevent precipitation of P450Cla. Next, hydroxylation of fatty acid substrates 1a-d (scheme 2) was performed employing purified P450Cla and P450BSß. The oxidant source was varied in case of P450Cla while only H2O2 was used with P450BSß. Table 2: Conversion of fatty acid substrates 1a-d with P450Cla and CYPBSß
(§2) All reactions were performed in closed glass vials for 24 h reaction time at RT with 170 rpm shaking. The reactions were quenched by addition of 100 µl 5 N HCl. Extractions were performed with 500 µl EtOAc containing 0.1 % 1-decanol as internal standard. After drying over Na2SO4, derivatization of acids to corresponding methyl esters was realized by mixing 150 µl of organic phase with 90µl of MeOH prior to supplementation of 20 µl of TMSCHN2 for esterification. Samples were analyzed by GC-FID and GC-MS. […]

P450Cla [4] = assay: conversion of fatty acid substrates 1a-d with P450Cla, oxidant H2O2; conditions: 3 µM P450Cla, 24 h, RT, values marked a based on substrate depletion
Protocol: P450Cla was ordered as synthetic gene and cloned into the pET28a expression vector. […] The dialysis buffer was supplemented with 300 mM NaCl to prevent precipitation of P450Cla. Next, hydroxylation of fatty acid substrates 1a-d (scheme 2) was performed employing purified P450Cla and P450BSß. The oxidant source was varied in case of P450Cla while only H2O2 was used with P450BSß.
Reaction conditions for P450Cla: 3µM P450Cla; Tris-HCl (pH 7.5; 0.1 M); 2.5 to 5 % EtOH (cosolvent for the substrate).
All reactions were performed in closed glass vials for 24 h reaction time at RT with 170 rpm shaking. The reactions were quenched by addition of 100 µl 5 N HCl. Extractions were performed with 500 µl EtOAc containing 0.1 % 1-decanol as internal standard. After drying over Na2SO4, derivatization of acids to corresponding methyl esters was realized by mixing 150 µl of organic phase with 90µl of MeOH prior to supplementation of 20 µl of TMSCHN2 for esterification. Samples were analyzed by GC-FID and GC-MS. Commercial standards of 2-hydroxycaproic acid (2a), 2-hydroxyoctanoic acid (2b) and 2-oxooctanoic acid (4b) were used as references. Calibration curves were obtained from standards 1a-d and 2a-b prepared identically to the reaction mixtures (5 concentration points from 10 µM to 1 mM).

P450Cla+CamAB = assay: conversion of fatty acid substrate with P450Cla+CamAB, oxidant O2 + NADPH; conditions: 10 mM substrate, % of the product area of the reaction with H2O2 and 10 mM 1d
Protocol: as §1, §2

HICDH-proteins = assay: spectrophotometric monitoring (340 nm) and GC-FID of HICDH oxidation and reduction

Structure (SMILES): CCCCCCCCCC(=O)O [Substrate C10, decanoic acid]
- TTNP450 (P450Cla [1]): ~3040
- Selectivity [% α-OH] (P450Cla [2]): > 90%
- specific activity (P450Cla [2]): ≥ 1 U mg^-1
- Product (P450Cla [2]; 5 min, H2O2 0.8 mM): 0.67 ± 0.04 mM
- Product (P450Cla [2]; 15 min, H2O2 0.8 mM): 0.6 ± 0.02 mM
- Product (P450Cla [2]; 30 min, H2O2 1.6 mM): 1.2 ± 0.06 mM
- Selectivity [% α-OH] (P450Cla [2]; 5 min, H2O2 0.8 mM): >95%
- TON (P450Cla [2]; 5 min, H2O2 0.8 mM): 266 min⁻¹
- TTN (P450Cla [2]; 5 min, H2O2 0.8 mM): 1330
- specific activity U mg^-1 (P450Cla [2]; 5 min, H2O2 0.8 mM): 5.5 U mg^-1
- Coupling* (P450Cla [2]; 5 min, H2O2 0.8 mM): 83%
- Selectivity [% α-OH] (P450Cla [2]; 15 min, H2O2 0.8 mM): >95%
- TON (P450Cla [2]; 15 min, H2O2 0.8 mM): 80 min⁻¹
- TTN (P450Cla [2]; 15 min, H2O2 0.8 mM): 1207
- specific activity U mg^-1 (P450Cla [2]; 15 min, H2O2 0.8 mM): 1.7 U mg^-1
- Coupling* (P450Cla [2]; 15 min, H2O2 0.8 mM): 75%
- Selectivity [% α-OH] (P450Cla [2]; 30 min, H2O2 1.6 mM): >95%
- TON (P450Cla [2]; 30 min, H2O2 1.6 mM): 80 min⁻¹
- TTN (P450Cla [2]; 30 min, H2O2 1.6 mM): 2406
- specific activity U mg^-1 (P450Cla [2]; 30 min, H2O2 1.6 mM): 1.7 U mg^-1
- Coupling* (P450Cla [2]; 30 min, H2O2 1.6 mM): 75%

Structure (SMILES): CCCCCCCCCCCC(=O)O [Substrate 1d, dodecanoic acid]
- Conversion (P450Cla [3]): 0%
- Conversion (P450Cla [4]; 5 mM substrate, H2O2 9.6 mM total): >99^a %
- Conversion (P450Cla [4]; 10 mM substrate, H2O2 19.2 mM total): >99^a %
- Conversion (P450Cla+CamAB): 5^b %

Structure (SMILES): CCCCCCC(=O)C(=O)O [Substrate 4b, 2-oxooctanoic acid]
- Reduction to 2-hydroxy octanoic acid 2b (GC-FID) (HICDH-proteins): confirmed
